Reference: US11198713B2, “Agents modulating beta-catenin functions and methods thereof” (FOG PHARMACEUTICALS, INC., priority 2017, dated 2021)
In brackets after ≈: the same amount, converted by molar mass. Read-outs that look alike come from different tables or passages of the source. Numbered stars: 1 amine (or outer) side, 2 acyl side, 3 side chain; on linkers, the order of the positions; unused ones are H or OH. Bridge positions count the residues as written; N and C are the ends. Square brackets hold non-standard residues; d marks the D form. Peptide text beside a SMILES is read from it. dαMeOrn(Me) = CN(CCC[C@@](C)(N[*:1])C(=O)[*:2])[*:3]; dαMeDab(Me) = CN(CC[C@@](C)(N[*:1])C(=O)[*:2])[*:3]; αMeDab(Me) = CN(CC[C@](C)(N[*:1])C(=O)[*:2])[*:3]; X6 = CN(CC=[*:3])CC[C@](C)(N[*:1])C(=O)[*:2]; X5 = C[C@](CCCCCC=[*:3])(N[*:1])C(=O)[*:2]; X2 = O=C(OCC=CCOC(=O)[*:2])[*:1]

How the values were obtained:
[1] = Solubility in DPBS (A280 of supernatant); type: physicochemical; conditions: DPBS
Description: Suitable assays for assessing solubility are widely known in the art and can be utilized in accordance with the present disclosure. In some embodiments, in an exemplary protocol, dried peptide was reconstituted in DPBS (DPBS, 1×, cell culture grade, Sigma D8537) in triplicate, vortexed, sonicated and then centrifuged. Absorbance of the supernatant was measured at A280 (Nanodrop 2000) and the concentration was determined using the extinction coefficient for tryptophan. Exemplary solubility data are presented in, e.g., Table 2.

[2] = biological target: T1, full-length beta-catenin (Axin site) (Homo sapiens, UniProt P35222); experiment: Competition fluorescence polarization assay (Axin site probe); type: binding; conditions: competition fluorescence polarization, Table 2; read-out: in vitro FP EC50
T1 construct: 15 nM full-length beta-catenin, 20 nM FITC labeled peptide in buffer
T1 sequence (P35222 1-781): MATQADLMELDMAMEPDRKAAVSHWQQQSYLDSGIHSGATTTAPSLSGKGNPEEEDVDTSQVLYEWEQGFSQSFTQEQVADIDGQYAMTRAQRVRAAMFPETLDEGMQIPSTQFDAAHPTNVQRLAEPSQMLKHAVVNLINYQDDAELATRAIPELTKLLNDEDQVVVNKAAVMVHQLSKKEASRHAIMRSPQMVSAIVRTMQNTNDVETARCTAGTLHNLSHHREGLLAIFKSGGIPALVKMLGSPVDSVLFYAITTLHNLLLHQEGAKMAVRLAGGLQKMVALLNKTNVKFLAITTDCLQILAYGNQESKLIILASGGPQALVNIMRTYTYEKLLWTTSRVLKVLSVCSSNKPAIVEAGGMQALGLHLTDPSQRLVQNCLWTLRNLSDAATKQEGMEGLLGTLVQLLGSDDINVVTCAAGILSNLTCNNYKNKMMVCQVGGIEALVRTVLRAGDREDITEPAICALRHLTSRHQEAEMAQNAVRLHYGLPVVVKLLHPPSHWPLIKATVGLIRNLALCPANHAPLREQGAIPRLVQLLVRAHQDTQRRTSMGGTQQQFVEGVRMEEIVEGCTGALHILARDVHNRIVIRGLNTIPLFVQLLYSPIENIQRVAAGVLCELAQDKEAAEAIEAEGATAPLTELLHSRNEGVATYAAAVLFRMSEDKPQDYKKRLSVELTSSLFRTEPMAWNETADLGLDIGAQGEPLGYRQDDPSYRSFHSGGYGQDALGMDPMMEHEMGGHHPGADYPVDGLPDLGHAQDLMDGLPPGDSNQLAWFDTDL
Summary of the method: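 Competition FP: 15 nM full-length β-catenin pre-incubated 5 min with 20 nM FITC-labelled stapled Axin-site peptide, then titrated peptide added (3-fold series from 5 μM) for 15 min in the dark. Buffer 50 mM Tris pH 8.0, 250 mM NaCl, 2% glycerol, 0.5 mM EDTA; duplicate reads.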

[3] = Table 3 Part A, read-out: Solubility in DPBS

## CC[C@H](C)[C@@H]1NC(=O)[C@H](Cc2c[nH]cn2)NC(=O)[C@H](C)NC(=O)[C@H](CC(=O)O)NC(=O)[C@H](CC(C)C)NC(=O)[C@H]([C@@H](C)CC)NC(=O)[C@](C)(NC(=O)[C@H](C)NC(C)=O)CCCCCCCCCOC(=O)N2CC[C@@](C(=O)N[C@@H](CCCNC(=N)N)C(=O)N[C@H](C(=O)N[C@@H](Cc3c[nH]c4ccccc34)C(N)=O)C(C)C)(C2)NC1=O [FP0217rc, Ac-A-R8-I-L-D-A-H-I-MB-R-V-W-NH2]
[1]; Table 2, read-out: Solubility
  solubility: 26 µM (≈ 41.2 µg/mL)
[2]
  EC50: < 100 nM

## CC[C@H](C)[C@@H]1NC(=O)[C@H](Cc2c[nH]cn2)NC(=O)[C@H](C)NC(=O)[C@H](CC(=O)O)NC(=O)[C@H](CC(C)C)NC(=O)[C@H]([C@@H](C)CC)NC(=O)[C@](C)(NC(=O)[C@H](C)NC(C)=O)CCCN(C)C(=O)OCC=CCOC(=O)N(C)CC[C@](C)(C(=O)N[C@@H](CCCNC(=N)N)C(=O)N[C@H](C(=O)N[C@@H](Cc2c[nH]c3ccccc23)C(N)=O)C(C)C)NC1=O [FP0588c, Ac-A-MI-I-L-D-A-H-I-MG-R-V-W-NH2] (Ac-A[dαMeOrn(Me)]ILDAHI[dαMeDab(Me)]RVW-NH2; linker 2-9 via X2)
[1]; Table 2, read-out: Solubility
  solubility: 133 µM (≈ 219 µg/mL)
[1]; [3]
  solubility: 133 µM (≈ 219 µg/mL)
[2]
  EC50: < 100 nM

## CC[C@H](C)[C@@H]1NC(=O)[C@H](Cc2c[nH]cn2)NC(=O)[C@H](C)NC(=O)[C@H](CC(=O)O)NC(=O)[C@H](CC(C)C)NC(=O)[C@H]([C@@H](C)CC)NC(=O)[C@](C)(NC(=O)[C@H](C)NC(C)=O)CCCCCCC=CCOC(=O)N2CC[C@@](C(=O)N[C@@H](CCCNC(=N)N)C(=O)N[C@](C)(C(=O)N[C@@H](Cc3c[nH]c4ccccc34)C(N)=O)C(C)C)(C2)NC1=O [FP0632c, Ac-A-R8-I-L-D-A-H-I-MB-R-aMeV-W-NH2]
[1]; Table 2, read-out: Solubility
  solubility: 13 µM (≈ 20.8 µg/mL)
[2]
  EC50: 100 to 500 nM

## CC[C@H](C)[C@@H]1NC(=O)[C@H](Cc2c[nH]cn2)NC(=O)[C@H](C)NC(=O)[C@H](CC(=O)O)NC(=O)[C@H](CC(C)C)NC(=O)[C@H]([C@@H](C)CC)NC(=O)[C@](C)(NC(=O)[C@H](C)NC(C)=O)CCN(C)C(=O)OCC=CCOC(=O)N(C)CC[C@@](C)(C(=O)N[C@@H](CCCNC(=N)N)C(=O)N[C@H](C(=O)N[C@@H](Cc2c[nH]c3ccccc23)C(N)=O)C(C)C)NC1=O [FP0594c, Ac-A-MG-I-L-D-A-H-I-MF-R-V-W-NH2] (Ac-A[dαMeDab(Me)]ILDAHI[αMeDab(Me)]RVW-NH2; linker 2-9 via X2)
[1]; Table 2, read-out: Solubility
  solubility: 166 µM (≈ 271 µg/mL)
[1]; [3]
  solubility: 166 µM (≈ 271 µg/mL)
[2]
  EC50: 100 to 500 nM

## CC[C@H](C)[C@@H]1NC(=O)[C@H](Cc2c[nH]cn2)NC(=O)[C@H](C)NC(=O)[C@H](CC(=O)O)NC(=O)[C@H](CC(C)C)NC(=O)[C@H]([C@@H](C)CC)NC(=O)[C@](C)(NC(=O)[C@H](C)NC(C)=O)CCCC=CCOC(=O)N(C)CCC[C@@](C)(C(=O)N[C@@H](CCCNC(=N)N)C(=O)N[C@H](C(=O)N[C@@H](Cc2c[nH]c3ccccc23)C(N)=O)C(C)C)NC1=O (single isomer, unassigned) [FP0510c Isomer 2, Ac-A-R5-I-L-D-A-H-I-MH-R-V-W-NH2]
[1]; Table 3 Part A
  Solubility in DPBS: 31 (Isomer 2) μM
[2]
  EC50: < 100 nM

## CC[C@H](C)[C@@H]1NC(=O)[C@H](Cc2c[nH]cn2)NC(=O)[C@H](C)NC(=O)[C@H](CC(=O)O)NC(=O)[C@H](CC(C)C)NC(=O)[C@H]([C@@H](C)CC)NC(=O)[C@](C)(NC(=O)[C@H](C)NC(C)=O)CCCCCC=CCN(C)CC[C@@](C)(C(=O)N[C@@H](CCCNC(=N)N)C(=O)N[C@H](C(=O)N[C@@H](Cc2c[nH]c3ccccc23)C(N)=O)C(C)C)NC1=O [FP0503a, Ac-A-R7-I-L-D-A-H-I-MF-R-V-W-NH2] (Ac-A[X5]ILDAHI[X6]RVW-NH2; staple 2-9)
[1]; Table 2, read-out: Solubility
  solubility: 236 µM (≈ 364 µg/mL)
[1]; Table 3 Part B, amino-stapled product, read-out: Solubility in DPBS
  solubility: 236 µM (≈ 364 µg/mL)
[2]
  EC50: 100 to 500 nM

## CC[C@H](C)[C@@H]1NC(=O)[C@H](Cc2c[nH]cn2)NC(=O)[C@H](C)NC(=O)[C@H](CC(=O)O)NC(=O)[C@H](CC(C)C)NC(=O)[C@H]([C@@H](C)CC)NC(=O)[C@](C)(NC(C)=O)CCCCCCC=CCOC(=O)N2CC[C@@](C(=O)N[C@@H](CCCNC(=N)N)C(=O)N[C@H](C(=O)N[C@@H](Cc3c[nH]c4ccccc34)C(N)=O)C(C)C)(C2)NC1=O [FP0220c, Ac-R8-I-L-D-A-H-I-MB-R-V-W-NH2]
[1]; Table 2, read-out: Solubility
  solubility: 14 µM (≈ 21.2 µg/mL)
[2]
  EC50: < 100 nM
